Our source for the IC50 values is patent US9181223B2, “2-aminopyrimidin-6-ones and analogs exhibiting anti-cancer and anti-proliferative activities” (Deciphera Pharmaceuticals, LLC, priority 2013, dated 2015).

For assay [1], the target named is T1, unphosphorylated c-KIT kinase (uKIT, Seq. ID no. 2) (Homo sapiens, UniProt P10721).
T1 construct: uKit with N-terminal GST fusion used for screening
The assay can be described thus: uKit kinase assay (ADP production coupled to pyruvate kinase/lactate dehydrogenase). In kind it is biochemical. The note with it: enzymatic assay, ATP 2000 μM; read-out: uKIT. The method, then: In this assay, the oxidation of NADH (thus the decrease at A340 nm) was continuously monitored spectrophometrically. […] The inhibition reaction was started by mixing serial diluted test compound with the above reaction mixture. The absorption at 340 nm was monitored continuously for 4 hours at 30° C. on Synergy 2 plate reader (BioTech).

Another assay has as its system osteoclast precursors. The assay can be described thus: Osteoclast tartrate-resistant acid phosphatase assay. In kind it is cell-based. The following applies: tartrate-resistant acid phosphatase activity, RANKL and M-CSF, 7-14 days. The method, then:
Osteoclast Tartrate-Resistant Acid Phosphatase Assay
A serial dilution of test compound was dispensed into a 384-well black clear bottom plate (Nalge Nunc International, Rochester, N.Y.). Compound was diluted by the addition of DMEM media supplemented with 10% characterized fetal bovine serum (Invitrogen, Carlsbad, Calif.). Diluted compound was transferred to a 384-well black clear bottom plate. Two-thousand five hundred osteoclast precursors (Lonza, Walkersville, Md.) were added per well in growth media containing Receptor Activator of Nuclear Factor Kappa-beta ligand (RANKL) and M-CSF (R&D Systems, Minneapolis, Minn.). Plates were incubated for 7-14 days at 37 degrees Celsius, 5% CO2, and 95% humidity to allow differentiation of osteoclast precursors. At the end of the incubation period, 10 μL of supernatant from each well was transferred to a clear 384-well plate. Tartrate-resistant acid phosphatase activity in the supernatant samples was determined using an acid phosphatase assay kit (Sigma, St. Louis, Mo.). Absorbance was measured at 550 nm using a plate reader. Data was analyzed using Prism software (Graphpad, San Diego, Calif.) to calculate IC50 values.

Assay [2] has as its target T2, unphosphorylated PDGFRβ kinase (uPDGFRβ, Seq. ID No. 3) (Homo sapiens, UniProt P09619).
T2 construct: purchased DeCode
The assay can be described thus: uPDGFRβ kinase assay (ADP production coupled to pyruvate kinase/lactate dehydrogenase). In kind it is biochemical. The note with it: enzymatic assay, ATP 500 μM. As to the method: Unphosphorylated […]β) Kinase (Seq. ID No. 3) Assay Activity of unphosphorylated PDGFRβ kinase ([…] No. 3) was determined by following the production of ADP from the kinase reaction with ATP and poly E4Y as substrates through coupling with the pyruvate kinase/lactate dehydrogenase system (e.g., Schindler et al. Science (2000) 289: 1938-1942). In this assay, the oxidation of NADH (thus the decrease at A340 nm) was continuously monitored spectrophometrically. The reaction mixture (100 μL) contained PDGFRβ (DeCode, 15.7 nM), polyE4Y (2.5 mg/mL), MgCl2 (10 mM), pyruvate kinase (4 units), lactate dehydrogenase (0.7 units), phosphoenol pyruvate (1 mM) and NADH (0.28 mM) and ATP (500 μM) in a 90 mM Tris buffer containing 0.2% octyl-glucoside and 1% DMSO, at pH 7.5. The inhibition reaction was started by mixing serial diluted test compound with the above reaction mixture. The absorption at 340 nm was monitored continuously for 4 h at 30° C. on a Polarstar Optima or Synergy 2 plate reader. The reaction rate was calculated using the 1.5 to 2.5 h time frame. Percent inhibition was obtained by comparison of reaction rate with that of a control (i.e. with no test compound). IC50 values were calculated from a series of percent inhibition values determined at a range of inhibitor concentrations using software routines as implemented in the GraphPad Prism software package.

In another assay the test system is M-NFS-60 cells. The assay can be described thus: M-NFS-60 cell proliferation assay (resazurin). In kind it is cell-based. The note with it: 67 h incubation. The method, then:
M-NFS-60 cells (catalog #CRL-1838) were obtained from the American Type Culture Collection (ATCC, Manassas, Va.). Briefly, cells were grown in suspension in RPMI 1640 medium supplemented with 10% characterized fetal bovine serum (Invitrogen, Carlsbad, Calif.), 0.05 mM 2-mercaptoethanol, and 20 ng/mL mouse recombinant macrophage colony stimulating factor (M-CSF) at 37° C., 5% CO2, and 95% humidity. Cells were allowed to expand until reaching saturation at which point they were subcultured or harvested for assay use.
M-NFS-60 Cell Proliferation Assay
A serial dilution of test compound was dispensed into a 384-well black clear bottom plate (Corning, Corning, N.Y.). Two thousand five hundred cells were added per well in 50 μL complete growth medium. Plates were incubated for 67 h at 37° C., 5% CO2, and 95% humidity. At the end of the incubation period 10 μL of a 440 µM solution of resazurin (Sigma, St. Louis, Mo.) in PBS was added to each well and incubated for an additional 5 h at 37° C., 5% CO2, and 95% humidity. Plates were read on a Synergy2 reader (Biotek, Winooski, Vt.) using an excitation of 540 nm and an emission of 600 nm. IC50 values were calculated from a series of percent inhibition values determined at a range of inhibitor concentrations using software routines as implemented in the GraphPad Prism software package.
On the technique in general: The colour change of resazurin is a common sign of viable cells or microbes.

For assay [3], the target named is T3, unphosphorylated c-FMS kinase (uFMS, Seq. ID no. 1) (Homo sapiens, UniProt P07333).
T3 construct: purchased Millipore
T3 sequence (P07333 538-972): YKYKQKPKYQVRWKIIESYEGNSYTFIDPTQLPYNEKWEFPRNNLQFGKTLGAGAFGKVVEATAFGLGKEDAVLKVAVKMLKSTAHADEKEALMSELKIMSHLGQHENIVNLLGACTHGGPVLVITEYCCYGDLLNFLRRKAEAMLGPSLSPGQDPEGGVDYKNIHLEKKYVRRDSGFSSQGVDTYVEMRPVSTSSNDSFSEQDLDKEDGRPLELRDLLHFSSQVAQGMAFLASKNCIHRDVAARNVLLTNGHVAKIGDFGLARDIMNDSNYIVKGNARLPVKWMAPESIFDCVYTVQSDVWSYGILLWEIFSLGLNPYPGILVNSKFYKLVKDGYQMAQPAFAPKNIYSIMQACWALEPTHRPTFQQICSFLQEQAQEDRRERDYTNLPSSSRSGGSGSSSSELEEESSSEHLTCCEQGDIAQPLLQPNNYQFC
The assay can be described thus: uFMS kinase assay (ADP production coupled to pyruvate kinase/lactate dehydrogenase). In kind it is biochemical. The note with it: enzymatic assay, ATP 500 μM. As to the method:
uFMS Kinase (Seq. ID No. 1) Assay
In this assay, the oxidation of NADH (thus the decrease at A340 nm) was continuously monitored spectrophometrically. The reaction mixture (100 μL) contained FMS (purchased from Millipore) (10 nM), polyE4Y (1 mg/mL), MgCl2 (10 mM), pyruvate kinase (4 units), lactate dehydrogenase (0.7 units), phosphoenol pyruvate (1 mM), NADH (0.28 mM) and ATP (500 μM) in 90 mM Tris buffer containing 0.2% octyl-glucoside and 1% DMSO, pH 7.5. The inhibition reaction was started by mixing serial diluted test compound with the above reaction mixture. The absorption at 340 nm was monitored continuously for 4 hours at 30° C. on Synergy 2 plate reader. The reaction rate was calculated using the 3 to 4 h time frame. Percent inhibition was obtained by comparison of reaction rate with that of a control (i.e. in the absence of test compound). IC50 values were calculated from a series of percent inhibition values determined at a range of inhibitor concentrations using software routines as implemented in the GraphPad Prism software package.

Assay [4] addresses T4, phospho-FMS in THP-1 cells (Homo sapiens, UniProt P07333).
T4 construct: endogenous in cells; host or cells: THP-1 (ATCC TIB-202)
The assay can be described thus: Phospho-FMS ELISA assay in THP-1 cells. In kind it is cell-based. The note with it: 4 hours compound, M-CSF stimulation 5 minutes, read-out: pFMS inhibition in THP-1 cells. The method, then:
Cells were allowed to expand until reaching 70-95% confluency at which point they were subcultured or harvested for assay use.
In a separate 96 well black clear bottom plate, one hundred and fifty thousand THP-1 cells were added per well in 100 μL in assay medium. Fifty microliters of diluted compound was then added to the cells. Plates were incubated for 4 hours at 37 degrees Celsius, 5% CO2, 95% humidity. […] Lysates were prepared and used to perform the phospho-FMS ELISA as described by the manufacturer (catalog #DYC3268, R & D Systems, Minneapolis, Minn.). GraphPad Prism was used to calculate IC50 values obtained from data generated from the ELISA assay.
Background: In an ELISA, binding on a coated surface is turned into a signal by an enzyme label.

T1 sequence (P10721 with tags, fused parts or gaps): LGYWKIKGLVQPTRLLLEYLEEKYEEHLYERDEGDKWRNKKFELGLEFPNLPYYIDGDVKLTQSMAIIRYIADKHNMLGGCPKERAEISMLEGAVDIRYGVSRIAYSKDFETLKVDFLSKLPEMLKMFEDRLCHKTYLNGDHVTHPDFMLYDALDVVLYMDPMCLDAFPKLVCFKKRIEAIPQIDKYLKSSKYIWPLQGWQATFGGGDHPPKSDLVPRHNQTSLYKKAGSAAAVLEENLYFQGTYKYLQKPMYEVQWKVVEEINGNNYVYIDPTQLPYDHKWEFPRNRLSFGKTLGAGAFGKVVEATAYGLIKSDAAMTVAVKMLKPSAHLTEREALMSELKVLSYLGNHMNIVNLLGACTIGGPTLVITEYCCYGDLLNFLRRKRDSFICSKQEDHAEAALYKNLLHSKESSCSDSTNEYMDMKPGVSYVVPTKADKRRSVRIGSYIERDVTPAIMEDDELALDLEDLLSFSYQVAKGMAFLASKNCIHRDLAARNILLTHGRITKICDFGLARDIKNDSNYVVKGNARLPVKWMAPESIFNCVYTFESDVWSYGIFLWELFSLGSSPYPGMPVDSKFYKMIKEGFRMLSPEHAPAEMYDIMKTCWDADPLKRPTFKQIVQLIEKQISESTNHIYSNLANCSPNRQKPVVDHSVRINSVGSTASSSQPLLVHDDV
T4 sequence (P07333 20-972): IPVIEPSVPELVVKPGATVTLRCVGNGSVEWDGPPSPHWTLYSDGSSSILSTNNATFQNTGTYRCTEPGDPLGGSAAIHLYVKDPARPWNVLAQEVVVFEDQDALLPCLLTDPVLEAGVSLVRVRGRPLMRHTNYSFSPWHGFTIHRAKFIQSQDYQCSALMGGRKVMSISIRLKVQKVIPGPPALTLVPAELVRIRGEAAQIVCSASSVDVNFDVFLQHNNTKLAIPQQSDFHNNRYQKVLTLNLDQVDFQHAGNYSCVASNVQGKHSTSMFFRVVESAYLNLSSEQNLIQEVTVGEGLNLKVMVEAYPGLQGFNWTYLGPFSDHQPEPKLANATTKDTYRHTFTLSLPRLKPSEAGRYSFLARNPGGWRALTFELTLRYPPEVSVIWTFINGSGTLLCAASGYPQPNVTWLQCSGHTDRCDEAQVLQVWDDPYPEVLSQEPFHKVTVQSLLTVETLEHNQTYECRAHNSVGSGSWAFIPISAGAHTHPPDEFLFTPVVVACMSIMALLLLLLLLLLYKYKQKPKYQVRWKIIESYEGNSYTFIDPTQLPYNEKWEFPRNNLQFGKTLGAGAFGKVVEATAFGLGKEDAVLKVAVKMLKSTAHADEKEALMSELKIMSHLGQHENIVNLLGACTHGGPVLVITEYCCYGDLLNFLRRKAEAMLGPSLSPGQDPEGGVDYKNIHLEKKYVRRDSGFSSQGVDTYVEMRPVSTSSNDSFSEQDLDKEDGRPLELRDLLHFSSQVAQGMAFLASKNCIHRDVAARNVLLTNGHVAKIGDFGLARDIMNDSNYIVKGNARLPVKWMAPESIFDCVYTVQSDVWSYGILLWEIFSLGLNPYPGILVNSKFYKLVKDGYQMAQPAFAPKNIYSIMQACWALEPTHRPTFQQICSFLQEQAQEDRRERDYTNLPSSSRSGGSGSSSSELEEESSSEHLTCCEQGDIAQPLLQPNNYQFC
T2 sequence (P09619 557-1106): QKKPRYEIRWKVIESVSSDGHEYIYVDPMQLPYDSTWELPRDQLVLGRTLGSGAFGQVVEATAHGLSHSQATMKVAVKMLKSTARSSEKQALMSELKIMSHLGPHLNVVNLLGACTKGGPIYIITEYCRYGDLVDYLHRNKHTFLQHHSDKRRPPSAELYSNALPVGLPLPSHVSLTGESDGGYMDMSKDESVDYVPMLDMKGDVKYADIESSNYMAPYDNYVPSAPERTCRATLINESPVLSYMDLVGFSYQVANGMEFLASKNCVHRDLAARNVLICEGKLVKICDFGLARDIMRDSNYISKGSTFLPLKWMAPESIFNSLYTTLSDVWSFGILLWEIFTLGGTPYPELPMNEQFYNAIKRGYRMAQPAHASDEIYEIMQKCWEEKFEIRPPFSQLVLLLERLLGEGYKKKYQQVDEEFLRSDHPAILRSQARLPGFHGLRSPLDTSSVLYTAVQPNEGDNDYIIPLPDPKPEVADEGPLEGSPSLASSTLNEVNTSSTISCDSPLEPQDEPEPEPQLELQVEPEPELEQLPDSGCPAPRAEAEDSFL

Regarding `COCCNc1ncc(-c2ccc(Oc3ccnc(-c4cnn(C)c4)c3)c(C)n2)c(=O)[nH]1` [Example 6, 2-((2-methoxyethyl)amino)-5-(6-methyl-5-((2-(1-methyl-1H-pyrazol-4-yl)pyridin-4-yl)oxy)pyridin-2-yl)pyrimidin-4(3H)-one], the IC50 in assay [1] was 100 to 1000 nM; with osteoclast precursors it was 10 to 100 nM; in assay [2] it was greater than 1000 nM; in the assay with M-NFS-60 cells it was 100 to 1000 nM.

As to `Cc1nc(-c2cnc(N3CCCC3)n(C)c2=O)ccc1Oc1ccnc(-c2cnn(C)c2)c1` [Example 16, 3-methyl-5-(6-methyl-5-((2-(1-methyl-1H-pyrazol-4-yl)pyridin-4-yl)oxy)pyridin-2-yl)-2-(pyrrolidin-1-yl)pyrimidin-4(3H)-one], the IC50 in assay [1] is greater than 1000 nM; in the assay with osteoclast precursors, less than 10 nM; in assay [2] it was 100 to 1000 nM; in the assay on M-NFS-60 cells, less than 10 nM.

Consider `Cc1cc(-c2cnc(NC(C)C)[nH]c2=O)ncc1Oc1ccnc(-c2cnn(C)c2)c1` [Example 18, 2-(isopropylamino)-5-(4-methyl-5-((2-(1-methyl-1H-pyrazol-4-yl)pyridin-4-yl)oxy)pyridin-2-yl)pyrimidin-4(3H)-one], for which the IC50 was 10 to 100 nM in assay [1], less than 10 nM with osteoclast precursors, 10 to 100 nM in assay [2] and less than 10 nM with M-NFS-60 cells.

For `COC[C@@H](C)Nc1ncc(-c2ccc(Oc3ccnc(-c4cnn(C)c4)c3)c(C)n2)c(=O)[nH]1` [Example 22, (R)-2-((1-methoxypropan-2-yl)amino)-5-(6-methyl-5-((2-(1-methyl-1H-pyrazol-4-yl)pyridin-4-yl)oxy)pyridin-2-yl)pyrimidin-4(3H)-one], the IC50 is greater than 1000 nM in assay [1]; less than 10 nM in the assay with osteoclast precursors; greater than 1000 nM in assay [2]; 10 to 100 nM in assay [3]; 10 to 100 nM in the assay with M-NFS-60 cells; 100 to 1000 nM in assay [4].

As for `COC[C@H]1CCCN1c1ncc(-c2ccc(Oc3ccnc(-c4cnn(C)c4)c3)c(C)n2)c(=O)[nH]1` [Example 23, (R)-2-(2-(methoxymethyl)pyrrolidin-1-yl)-5-(6-methyl-5-((2-(1-methyl-1H-pyrazol-4-yl)pyridin-4-yl)oxy)pyridin-2-yl)pyrimidin-4(3H)-one], the IC50 in assay [1] was greater than 1000 nM; with osteoclast precursors, 10 to 100 nM; in assay [2], greater than 1000 nM; in assay [3] it was 10 to 100 nM; with M-NFS-60 cells, 10 to 100 nM.

On to `Cc1nc(-c2cnc(N3CC[C@H](N(C)C)C3)[nH]c2=O)ccc1Oc1ccnc(-c2cnn(C)c2)c1` [Example 24, (S)-2-(3-(dimethylamino)pyrrolidin-1-yl)-5-(6-methyl-5-((2-(1-methyl-1H-pyrazol-4-yl)pyridin-4-yl)oxy)pyridin-2-yl)pyrimidin-4(3H)-one], for which the IC50 in assay [1] was greater than 1000 nM; in the assay with osteoclast precursors, 100 to 1000 nM; in assay [2], greater than 1000 nM; in assay [3], 100 to 1000 nM; with M-NFS-60 cells it was 100 to 1000 nM.

For `CCNc1ncc(-c2ccc(Oc3ccnc(-c4cnn(C)c4)c3)c(C)n2)c(=O)n1C` [Example 25, 2-(ethylamino)-3-methyl-5-(6-methyl-5-((2-(1-methyl-1H-pyrazol-4-yl)pyridin-4-yl)oxy)pyridin-2-yl)pyrimidin-4(3H)-one], the IC50 in assay [1] was 100 to 1000 nM; in the assay on osteoclast precursors it was 10 to 100 nM; in assay [2], greater than 1000 nM; in assay [3], 10 to 100 nM; with M-NFS-60 cells, 10 to 100 nM; in assay [4] it was 10 to 100 nM.

Consider `COCCNc1ncc(-c2ccc(Oc3ccnc(-c4cnn(C)c4)c3)c(C)n2)c(=O)n1C` [Example 26, 2-((2-methoxyethyl)amino)-3-methyl-5-(6-methyl-5-((2-(1-methyl-1H-pyrazol-4-yl)pyridin-4-yl)oxy)pyridin-2-yl)pyrimidin-4(3H)-one], for which the IC50 was greater than 1000 nM in assay [1], 10 to 100 nM in the assay with osteoclast precursors, greater than 1000 nM in assay [2] and 10 to 100 nM in the assay on M-NFS-60 cells.

In the case of `Cc1nc(-c2cnc(NC(C)(C)C)[nH]c2=O)ccc1Oc1ccnc(-c2cnn(C)c2)c1` [Example 28, 2-(tert-butylamino)-5-(6-methyl-5-((2-(1-methyl-1H-pyrazol-4-yl)pyridin-4-yl)oxy)pyridin-2-yl)pyrimidin-4(3H)-one], the IC50 in assay [1] was 10 to 100 nM; in the assay on osteoclast precursors it was 10 to 100 nM; in assay [2], 10 to 100 nM; in assay [3], less than 10 nM; in the assay with M-NFS-60 cells, 10 to 100 nM; in assay [4], 10 to 100 nM.

In the case of `Cc1nc(-c2cnc(NCC(C)(C)C)[nH]c2=O)ccc1Oc1ccnc(-c2cnn(C)c2)c1` [Example 29, 5-(6-methyl-5-((2-(1-methyl-1H-pyrazol-4-yl)pyridin-4-yl)oxy)pyridin-2-yl)-2-(neopentylamino)pyrimidin-4(3H)-one], the IC50 in assay [1] is 10 to 100 nM; with osteoclast precursors, 10 to 100 nM; in assay [2], 100 to 1000 nM; in assay [3] it was less than 10 nM; in the assay with M-NFS-60 cells, 10 to 100 nM; in assay [4], 10 to 100 nM.
